≈ marks a conversion by molar mass, not a printed value. Entries after “also recorded” stand apart in the source; their conditions may differ. Where two headings read alike, the source gives them in different places.
Legend:
Format in all cases: cell-based
Vibrio cholerae = test: MIC micro-dilution
Description: (§1) Luria-Bertani (LB) media (10 g/L tryptone, 10 g/L NaCl, 5 g/L yeast extract, pH 7.0) was used to grow all bacterial strains, except Streptococcus pyogenes. Streptococcus pyogenes was grown in Mueller-Hinton broth containing 5% (v/v) sheep blood. All bacterial cultures were grown at 37° C. All the E. coli strains were grown while shaking at 200 rpm, while clinical pathogens were incubated without shaking.
(§2) The MIC of all the strains was determined in LB media except Streptococcus pyogenes, which was grown in Mueller-Hinton media containing 5% (v/v) sheep blood. The micro-dilution method was utilized in 96-well clear flat-bottom plates (100 μL/well) according to the CLSI guidelines. All strains were grown at 37° C. for 16-18 hours in presence of various concentrations of compound. The MIC was determined by a visual inspection and experiments were performed in triplicate.

E. coli BW25113 = test: MIC micro-dilution; settings: Escherichia coli, LB media, 37° C., 16-18 hours
Description: as §1, §2

Bacillus subtilis 168 = test: MIC micro-dilution
Description: as §1, §2

Pseudomonas aeruginosa = test: MIC micro-dilution
Description: as §1, §2

Enterobacter aerogenes = test: MIC micro-dilution; settings: Klebsiella aerogenes
Description: as §1, §2

Morganella morganii = test: MIC micro-dilution
Description: as §1, §2

Staphylococcus aureus = test: MIC micro-dilution
Description: as §1, §2

Klebsiella pneumoniae = test: MIC micro-dilution
Description: as §1, §2

Acinetobacter baumannii = test: MIC micro-dilution
Description: as §1, §2

Salmonella typhimurium = test: MIC micro-dilution; settings: Salmonella enterica
Description: as §1, §2

Edwardsiella tarda = test: MIC micro-dilution
Description: as §1, §2

E. coli BW25113 ΔtolC = test: MIC micro-dilution; settings: Escherichia coli, LB media, 37° C., 16-18 hours
Description: as §1, §2

Shigella boydii = test: MIC micro-dilution; settings: LB media, 37° C., 16-18 hours, read-out: MIC
Description: as §1, §2

[1] = tested on: broad panel of human pathogens; test: MIC against the panel of pathogens; settings: panel of pathogens
Description: as §1, §2

[2] = Bacillus subtilis 168, LB media, 37° C., 16-18 hours, read-out: MIC
[3] = LB media, 37° C., 16-18 hours, read-out: MIC
[4] = Enterobacter aerogenes, LB media, 37° C., 16-18 hours, read-out: MIC
[5] = Salmonella typhimurium, LB media, 37° C., 16-18 hours, read-out: MIC

## CCCCCCCCCOc1ccc2[nH]ccc2c1 [Compound 14]
Vibrio cholerae
  MIC: > 83 µg/mL
E. coli BW25113; E. coli BW25113, read-out: MIC
  MIC: > 83 µg/mL
Bacillus subtilis 168; [2]
  MIC: > 83 µg/mL
Pseudomonas aeruginosa; [3]
  MIC: > 83 µg/mL
Enterobacter aerogenes; [4]
  MIC: > 83 µg/mL
Morganella morganii; [3]
  MIC: > 83 µg/mL
Staphylococcus aureus; [3]
  MIC: > 83 µg/mL
Klebsiella pneumoniae; [3]
  MIC: > 83 µg/mL
Acinetobacter baumannii; [3]
  MIC: > 83 µg/mL
Salmonella typhimurium; [5]
  MIC: > 83 µg/mL
Edwardsiella tarda; [3]
  MIC: > 83 µg/mL
E. coli BW25113 ΔtolC
  MIC: > 83 µg/mL
Shigella boydii
  MIC: > 83 µg/mL

## CCCCCCCCCOc1ccc2[nH]cc(CCNC(=O)OC(C)C)c2c1 [Compound 13]
Vibrio cholerae
  MIC: > 130 µg/mL
E. coli BW25113; E. coli BW25113, read-out: MIC
  MIC: > 130 µg/mL
Bacillus subtilis 168; [2]
  MIC: > 130 µg/mL
Pseudomonas aeruginosa; [3]
  MIC: > 130 µg/mL
Enterobacter aerogenes; [4]
  MIC: > 130 µg/mL
Morganella morganii; [3]
  MIC: > 130 µg/mL
Staphylococcus aureus; [3]
  MIC: > 130 µg/mL
Klebsiella pneumoniae; [3]
  MIC: > 130 µg/mL
Acinetobacter baumannii; [3]
  MIC: > 130 µg/mL
Salmonella typhimurium; [5]
  MIC: > 130 µg/mL
Edwardsiella tarda; [3]
  MIC: > 130 µg/mL
E. coli BW25113 ΔtolC
  MIC: > 130 µg/mL
Shigella boydii
  MIC: > 130 µg/mL

## COc1ccc2c(CCN)c[nH]c2c1 [Compound 6]
E. coli BW25113; BW25113, E. coli BW25113
  MIC: > 61 µg/mL
E. coli BW25113 ΔtolC
  MIC: > 61 µg/mL

## CCCCCCCCCOc1cccc(N)c1 [Compound 19]
E. coli BW25113; E. coli BW25113, read-out: MIC
  MIC: > 40 µg/mL
Bacillus subtilis 168; [2]
  MIC: 40 µg/mL (≈ 170 µM)
E. coli BW25113 ΔtolC
  MIC: 10 µg/mL (≈ 42.5 µM)

## CCCCCCCCCOc1ccc2[nH]cc(CC[N+](C)(C)C)c2c1 [Compound 15]
Vibrio cholerae
  MIC: > 104 µg/mL
E. coli BW25113; BW25113, E. coli BW25113
  MIC: 52 µg/mL
Bacillus subtilis 168; Bacillus subtilis, 168
  MIC: 52 µg/mL
Pseudomonas aeruginosa
  MIC: 52 µg/mL
Enterobacter aerogenes
  MIC: 52 µg/mL
Morganella morganii
  MIC: > 104 µg/mL
Staphylococcus aureus
  MIC: 6.5 µg/mL
Klebsiella pneumoniae
  MIC: 26 µg/mL
Acinetobacter baumannii
  MIC: 52 µg/mL
Salmonella typhimurium; TYPHIMURIUM
  MIC: 26 µg/mL
Edwardsiella tarda
  MIC: 26 µg/mL
E. coli BW25113 ΔtolC
  MIC: 6.5 µg/mL
Shigella boydii
  MIC: 26 µg/mL

## CCCCCCCCCCOc1ccc2[nH]cc(CCN)c2c1 [Compound 9]
[1]
  MICs compared with Compound 1: either the same or 2-fold different from 1
Vibrio cholerae
  MIC: 6.3 µg/mL (≈ 19.9 µM)
E. coli BW25113; E. coli BW25113, read-out: MIC
  MIC: 6.3 µg/mL (≈ 19.9 µM)
Pseudomonas aeruginosa; [3]
  MIC: > 101 µg/mL
Enterobacter aerogenes; [4]
  MIC: 13 µg/mL (≈ 41.1 µM)
Morganella morganii; [3]
  MIC: > 101 µg/mL
Staphylococcus aureus; [3]
  MIC: 6.3 µg/mL (≈ 19.9 µM)
Klebsiella pneumoniae; [3]
  MIC: 6.3 µg/mL (≈ 19.9 µM)
Acinetobacter baumannii; [3]
  MIC: 6.3 µg/mL (≈ 19.9 µM)
Salmonella typhimurium; [5]
  MIC: 6.3 µg/mL (≈ 19.9 µM)
Edwardsiella tarda; [3]
  MIC: 25 µg/mL (≈ 79 µM)
E. coli BW25113 ΔtolC
  MIC: 3.2 µg/mL (≈ 10.1 µM)
Shigella boydii
  MIC: 3.2 µg/mL (≈ 10.1 µM)

## CCCCOc1ccc2[nH]cc(CCN)c2c1 [Compound 7]
Vibrio cholerae
  MIC: > 74 µg/mL
E. coli BW25113; BW25113, E. coli BW25113
  MIC: > 74 µg/mL
Pseudomonas aeruginosa
  MIC: > 74 µg/mL
Enterobacter aerogenes
  MIC: > 74 µg/mL
Morganella morganii
  MIC: > 74 µg/mL
Staphylococcus aureus
  MIC: > 74 µg/mL
Klebsiella pneumoniae
  MIC: > 74 µg/mL
Acinetobacter baumannii
  MIC: > 74 µg/mL
Salmonella typhimurium; TYPHIMURIUM
  MIC: > 74 µg/mL
Edwardsiella tarda
  MIC: > 74 µg/mL
E. coli BW25113 ΔtolC
  MIC: > 74 µg/mL
Shigella boydii
  MIC: > 74 µg/mL

## CCCCCCCCCOc1cccc(CN)c1 [Compound 18]
E. coli BW25113; E. coli BW25113, read-out: MIC
  MIC: 9.4 µg/mL (≈ 37.7 µM)
Bacillus subtilis 168; [2]
  MIC: 4.7 µg/mL (≈ 18.8 µM)
E. coli BW25113 ΔtolC
  MIC: 4.7 µg/mL (≈ 18.8 µM)

## NCCc1c[nH]c2ccccc12 [Compound 4]
E. coli BW25113; BW25113, E. coli BW25113
  MIC: > 61 µg/mL
E. coli BW25113 ΔtolC
  MIC: > 61 µg/mL

## CC(C)CCCC(C)CCOc1ccc2[nH]cc(CCN)c2c1 (centres unmarked) [Compound 10]
[1]
  MICs compared with Compound 1: either the same or 2× different from Compound 1; also recorded: either the same or 2-fold different from 1
Vibrio cholerae
  MIC: 6.3 µg/mL (≈ 19.9 µM)
E. coli BW25113; E. coli BW25113, read-out: MIC
  MIC: 13 µg/mL (≈ 41.1 µM)
Pseudomonas aeruginosa; [3]
  MIC: 25 µg/mL (≈ 79 µM)
Enterobacter aerogenes; [4]
  MIC: 13 µg/mL (≈ 41.1 µM)
Morganella morganii; [3]
  MIC: > 101 µg/mL
Staphylococcus aureus; [3]
  MIC: 6.3 µg/mL (≈ 19.9 µM)
Klebsiella pneumoniae; [3]
  MIC: 13 µg/mL (≈ 41.1 µM)
Acinetobacter baumannii; [3]
  MIC: 13 µg/mL (≈ 41.1 µM)
Salmonella typhimurium; [5]
  MIC: 6.3 µg/mL (≈ 19.9 µM)
Edwardsiella tarda; [3]
  MIC: 25 µg/mL (≈ 79 µM)
E. coli BW25113 ΔtolC
  MIC: 3.2 µg/mL (≈ 10.1 µM)
Shigella boydii
  MIC: 6.3 µg/mL (≈ 19.9 µM)

## CCCCCCOc1ccc2[nH]cc(CCN)c2c1 [Compound 8]
Vibrio cholerae
  MIC: 42 µg/mL (≈ 161 µM)
E. coli BW25113; BW25113, E. coli BW25113
  MIC: 42 µg/mL (≈ 161 µM)
Pseudomonas aeruginosa
  MIC: > 83 µg/mL
Enterobacter aerogenes
  MIC: 42 µg/mL (≈ 161 µM)
Morganella morganii
  MIC: > 83 µg/mL
Staphylococcus aureus
  MIC: 42 µg/mL (≈ 161 µM)
Klebsiella pneumoniae
  MIC: 42 µg/mL (≈ 161 µM)
Acinetobacter baumannii
  MIC: 42 µg/mL (≈ 161 µM)
Salmonella typhimurium; TYPHIMURIUM
  MIC: 42 µg/mL (≈ 161 µM)
Edwardsiella tarda
  MIC: 42 µg/mL (≈ 161 µM)
E. coli BW25113 ΔtolC
  MIC: 42 µg/mL (≈ 161 µM)
Shigella boydii
  MIC: 42 µg/mL (≈ 161 µM)

## Cc1[nH]c2ccc(O)cc2c1CCN [Compound 5]
E. coli BW25113; BW25113, E. coli BW25113
  MIC: > 61 µg/mL
E. coli BW25113 ΔtolC
  MIC: > 61 µg/mL

## CCCCCCCCCOc1ccc(CCN)cc1 [Compound 17]
E. coli BW25113; BW25113, E. coli BW25113
  MIC: 5.3 µg/mL (≈ 20.1 µM)
Bacillus subtilis 168; Bacillus subtilis, 168
  MIC: 0.66 µg/mL (≈ 2.51 µM)
E. coli BW25113 ΔtolC
  MIC: 1.3 µg/mL (≈ 4.93 µM)

## NCCc1c[nH]c2ccc(OCCCCCCCc3ccccc3)cc12 [Compound 11]
[1]
  MICs compared with Compound 1: either the same or 2× different from Compound 1; also recorded: either the same or 2-fold different from 1
Vibrio cholerae
  MIC: 7 µg/mL (≈ 20 µM)
E. coli BW25113; E. coli BW25113, read-out: MIC
  MIC: 14 µg/mL (≈ 39.9 µM)
Pseudomonas aeruginosa; [3]
  MIC: 56 µg/mL (≈ 160 µM)
Enterobacter aerogenes; [4]
  MIC: 14 µg/mL (≈ 39.9 µM)
Morganella morganii; [3]
  MIC: > 112 µg/mL
Staphylococcus aureus; [3]
  MIC: 3.5 µg/mL (≈ 9.99 µM)
Klebsiella pneumoniae; [3]
  MIC: 7 µg/mL (≈ 20 µM)
Acinetobacter baumannii; [3]
  MIC: 7 µg/mL (≈ 20 µM)
Salmonella typhimurium; [5]
  MIC: 7 µg/mL (≈ 20 µM)
Edwardsiella tarda; [3]
  MIC: 28 µg/mL (≈ 79.9 µM)
E. coli BW25113 ΔtolC
  MIC: 1.8 µg/mL (≈ 5.14 µM)
Shigella boydii
  MIC: 7 µg/mL (≈ 20 µM)

## COc1ccc2[nH]cc(CCN)c2c1 [Compound 3]
E. coli BW25113; BW25113, E. coli BW25113
  MIC: > 56 µg/mL
E. coli BW25113 ΔtolC
  MIC: > 56 µg/mL

## CCCCCCCCCOc1cccc(CCN)c1 [Compound 16]
Vibrio cholerae
  MIC: 5.3 µg/mL (≈ 20.1 µM)
E. coli BW25113; BW25113, E. coli BW25113
  MIC: 5.3 µg/mL (≈ 20.1 µM)
Bacillus subtilis 168; Bacillus subtilis, 168
  MIC: 0.66 µg/mL (≈ 2.51 µM)
Pseudomonas aeruginosa
  MIC: 21 µg/mL (≈ 79.7 µM)
Enterobacter aerogenes
  MIC: 5.3 µg/mL (≈ 20.1 µM)
Morganella morganii
  MIC: 11 µg/mL (≈ 41.8 µM)
Staphylococcus aureus
  MIC: 5.3 µg/mL (≈ 20.1 µM)
Klebsiella pneumoniae
  MIC: 5.3 µg/mL (≈ 20.1 µM)
Acinetobacter baumannii
  MIC: 5.3 µg/mL (≈ 20.1 µM)
Salmonella typhimurium; TYPHIMURIUM
  MIC: 5.3 µg/mL (≈ 20.1 µM)
Edwardsiella tarda
  MIC: 5.3 µg/mL (≈ 20.1 µM)
E. coli BW25113 ΔtolC
  MIC: 2.6 µg/mL (≈ 9.87 µM)
Shigella boydii
  MIC: 5.3 µg/mL (≈ 20.1 µM)

## NCCc1c[nH]c2ccc(O)cc12 [Compound 2]
E. coli BW25113; BW25113, E. coli BW25113
  MIC: > 51 µg/mL
E. coli BW25113 ΔtolC
  MIC: > 51 µg/mL

## CCCCCCCCCCCCCCCOc1ccc2[nH]cc(CCN)c2c1 [Compound 12]
Vibrio cholerae
  MIC: > 124 µg/mL
E. coli BW25113; BW25113, E. coli BW25113
  MIC: > 124 µg/mL
Pseudomonas aeruginosa
  MIC: > 124 µg/mL
Enterobacter aerogenes
  MIC: > 124 µg/mL
Morganella morganii
  MIC: > 124 µg/mL
Staphylococcus aureus
  MIC: > 124 µg/mL
Klebsiella pneumoniae
  MIC: > 124 µg/mL
Acinetobacter baumannii
  MIC: > 124 µg/mL
Salmonella typhimurium; TYPHIMURIUM
  MIC: > 124 µg/mL
Edwardsiella tarda
  MIC: > 124 µg/mL
E. coli BW25113 ΔtolC
  MIC: > 124 µg/mL
Shigella boydii
  MIC: > 124 µg/mL
